# Data reported in PubChem BioAssay (NCI).
#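 Assay format: 96-well plates, 48-hour exposure. The concentration for 50% growth inhibition is given as GI50. TGI: concentration producing complete growth inhibition.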
# Columns and labels:
# Assay in all cases: NCI anticancer screen, dose series, 48 h
# [1] = system: 786-0 renal
# [2] = system: A498 renal
# [3] = system: A549 NSCLC
# [4] = system: ACHN renal
# [5] = system: BT-549 breast
# [6] = system: CAKI-1 renal
# [7] = system: CCRF-CEM leukemia
# [8] = system: COLO 205 colon
# [9] = system: DU-145 prostate
# [10] = system: EKVX NSCLC
# [11] = system: HCC-2998 colon
# [12] = system: HCT-116 colon
# [13] = system: HCT-15 colon
# [14] = system: HL-60(TB) leukemia
# [15] = system: HOP-62 NSCLC
# [16] = system: HOP-92 NSCLC
# [17] = system: HS 578T breast
# [18] = system: HT29 colon
# [19] = system: IGROV1 ovarian
# [20] = system: K-562 leukemia
# [21] = system: KM12 colon
# [22] = system: LOX IMVI melanoma
# [23] = system: M14 melanoma
# [24] = system: MALME-3M melanoma
# [25] = system: MCF7 breast
# [26] = system: MDA-MB-231 breast
# [27] = system: MDA-MB-435
# [28] = system: MDA-MB-468 breast
# [29] = system: MOLT-4 leukemia
# [30] = system: NCI-H226 lung
# [31] = system: NCI-H23 lung
# [32] = system: NCI-H460 lung
# [33] = system: NCI-H522 lung
# [34] = system: NCI/ADR-RES ovarian
# [35] = system: OVCAR-3 ovarian
# [36] = system: OVCAR-4 ovarian
# [37] = system: OVCAR-5 ovarian
# [38] = system: OVCAR-8 ovarian
# [39] = system: PC-3 prostate
# [40] = system: RPMI-8226 leukemia
# [41] = system: RXF 393 renal
# [42] = system: SF-268 CNS
# [43] = system: SF-295 CNS
# [44] = system: SF-539 CNS
# [45] = system: SK-MEL-2 melanoma
# [46] = system: SK-MEL-28 melanoma
# [47] = system: SK-MEL-5 melanoma
# [48] = system: SK-OV-3 ovarian
# [49] = system: SN12C renal
# [50] = system: SNB-19 CNS
# [51] = system: SNB-75 CNS
# [52] = system: SW-620 colon
# [53] = system: T-47D breast
# [54] = system: TK-10 renal
# [55] = system: U251 CNS
# [56] = system: UACC-257 melanoma
# [57] = system: UACC-62 melanoma
# [58] = system: UO-31 renal
smiles,measurement,setting,value
COc1ccc2[nH]c(O)c(N=NC(=O)Cn3c(-c4ccccc4)nc4cc(C)ccc43)c2c1,GI50,[1],16 µM
same,TGI,[1],30.2 µM
same,GI50,[2],17.1 µM
same,TGI,[2],32.6 µM
same,GI50,[3],16.6 µM
same,TGI,[3],36.7 µM
same,GI50,[4],14.5 µM
same,TGI,[4],27.5 µM
same,GI50,[5],13.4 µM
same,TGI,[5],27.9 µM
same,GI50,[6],12.6 µM
same,TGI,[6],27 µM
same,GI50,[7],17.3 µM
same,TGI,[7],43.6 µM
same,GI50,[8],17.5 µM
same,TGI,[8],35.1 µM
same,GI50,[9],19.9 µM
same,TGI,[9],44.4 µM
same,GI50,[10],11 µM
same,TGI,[10],24.6 µM
same,GI50,[11],17.5 µM
same,TGI,[11],31.6 µM
same,GI50,[12],14 µM
same,TGI,[12],28 µM
same,GI50,[13],15.5 µM
same,TGI,[13],31.1 µM
same,GI50,[14],17.5 µM
same,TGI,[14],42.3 µM
same,GI50,[15],16 µM
same,TGI,[15],35.6 µM
same,GI50,[16],3.3 µM
same,TGI,[16],18 µM
same,GI50,[17],13.2 µM
same,TGI,[17],46.1 µM
same,GI50,[18],21.5 µM
same,TGI,[18],55.5 µM
same,GI50,[19],14.7 µM
same,TGI,[19],29.6 µM
same,GI50,[20],18 µM
same,TGI,[20],62.4 µM
same,GI50,[21],18.7 µM
same,TGI,[21],42.5 µM
same,GI50,[22],14.9 µM
same,TGI,[22],28.3 µM
same,GI50,[23],15.7 µM
same,TGI,[23],31.2 µM
same,GI50,[24],14.5 µM
same,TGI,[24],28.8 µM
same,GI50,[25],13.5 µM
same,TGI,[25],31.6 µM
same,GI50,[26],13.1 µM
same,TGI,[26],26.4 µM
same,GI50,[27],16.7 µM
same,TGI,[27],34.7 µM
same,GI50,[28],14.9 µM
same,TGI,[28],30.2 µM
same,GI50,[29],10.6 µM
same,TGI,[29],37.2 µM
same,GI50,[30],14 µM
same,TGI,[30],30.7 µM
same,GI50,[31],16.7 µM
same,TGI,[31],31.8 µM
same,GI50,[32],19.3 µM
same,TGI,[32],42.3 µM
same,GI50,[33],15.2 µM
same,TGI,[33],32.4 µM
same,GI50,[34],16.8 µM
same,TGI,[34],34.5 µM
same,GI50,[35],17.5 µM
same,TGI,[35],42.9 µM
same,GI50,[36],15 µM
same,TGI,[36],36.9 µM
same,GI50,[37],14.9 µM
same,TGI,[37],28.6 µM
same,GI50,[38],15.7 µM
same,TGI,[38],37.1 µM
same,GI50,[39],10.7 µM
same,TGI,[39],26.5 µM
same,GI50,[40],9.97 µM
same,TGI,[40],35.9 µM
same,GI50,[41],2.37 µM
same,TGI,[41],12.6 µM
same,GI50,[42],18.5 µM
same,TGI,[42],64.2 µM
same,GI50,[43],14.3 µM
same,TGI,[43],29 µM
same,GI50,[44],14.9 µM
same,TGI,[44],28.5 µM
same,GI50,[45],14.9 µM
same,TGI,[45],30.4 µM
same,GI50,[46],16.5 µM
same,TGI,[46],30.9 µM
same,GI50,[47],15 µM
same,TGI,[47],28.5 µM
same,GI50,[48],15.8 µM
same,TGI,[48],31.3 µM
same,GI50,[49],13.5 µM
same,TGI,[49],26.9 µM
same,GI50,[50],16.2 µM
same,TGI,[50],32.6 µM
same,GI50,[51],9.86 µM
same,TGI,[51],24.2 µM
same,GI50,[52],20.1 µM
same,TGI,[52],47.6 µM
same,GI50,[53],7.33 µM
same,TGI,[53],28.1 µM
same,GI50,[54],29 µM
same,TGI,[54],77.3 µM
same,GI50,[55],17 µM
same,TGI,[55],36.2 µM
same,GI50,[56],15.9 µM
same,TGI,[56],31.7 µM
same,GI50,[57],12.4 µM
same,TGI,[57],25.5 µM
same,GI50,[58],7.52 µM
same,TGI,[58],23.7 µM
